Values of other authors in patent US20230372307A1, “COMBINATION THERAPY USING BAX ACTIVATOR AGENT” (Albert Einstein College of Medicine, priority 2020, published 2023).

Tests used:
Settings in all cases: cited from earlier work
BCL-w = target: T1, BCL-w (Homo sapiens, UniProt Q92843)
T1 sequence (Q92843 1-193): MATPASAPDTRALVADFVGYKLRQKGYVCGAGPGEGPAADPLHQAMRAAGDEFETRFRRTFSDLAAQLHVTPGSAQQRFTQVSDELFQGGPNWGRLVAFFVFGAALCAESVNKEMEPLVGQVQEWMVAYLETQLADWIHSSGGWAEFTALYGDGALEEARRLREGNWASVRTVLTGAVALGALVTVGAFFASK

BCL-2 = BCL-2 (Homo sapiens, UniProt P10415)
BCL-XL = BCL-XL (Homo sapiens, UniProt Q07817)

Measured: affinity

BCL-XL, sequence (Q07817 whole entry): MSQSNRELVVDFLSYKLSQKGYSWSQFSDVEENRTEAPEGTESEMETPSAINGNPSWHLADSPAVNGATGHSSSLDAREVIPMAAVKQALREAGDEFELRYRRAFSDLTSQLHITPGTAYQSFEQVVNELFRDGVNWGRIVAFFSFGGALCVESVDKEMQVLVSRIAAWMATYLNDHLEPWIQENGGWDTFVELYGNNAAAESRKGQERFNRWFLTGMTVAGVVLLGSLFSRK
BCL-2, sequence (P10415 whole entry): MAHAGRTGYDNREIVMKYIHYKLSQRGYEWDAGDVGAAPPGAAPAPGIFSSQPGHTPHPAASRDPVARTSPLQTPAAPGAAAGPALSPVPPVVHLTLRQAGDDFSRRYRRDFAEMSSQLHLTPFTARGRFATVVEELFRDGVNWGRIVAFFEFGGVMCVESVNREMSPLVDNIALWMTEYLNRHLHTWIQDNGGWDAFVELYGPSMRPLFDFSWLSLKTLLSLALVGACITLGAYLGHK

CN(C)CC[C@H](CSc1ccccc1)Nc1ccc(S(=O)(=O)NC(=O)c2ccc(N3CCN(Cc4ccccc4-c4ccc(Cl)cc4)CC3)cc2)cc1[N+](=O)[O-] [ABT-737]
< 1 mol/L: all assays above
